From patent publication US7528144B2, “Molecules and methods for fluorescence microscopy” (WiSys Technology Foundation, Inc., priority 2005, dated 2009)

Tested on: THP-1 cells
Test: Photobleaching under repeated exposures in cells
Format: cell-based
Settings: 75-200 nM, repeated CCD exposures (FIG. 25)
Procedure: FIG. 25 depicts (A) InstantLyso LLT-1 at 75 nM in THP-1 cells. Exposures were taken every 30 seconds (with consistent CCD exposure length 7.5 seconds) with blue excitation cube (490 nm maximum).; (B) InstantGolgi McN-1 at 200 nm in THP-1 cells. Exposures were taken with consistent CCD exposure length with purple excitation cube.; (C) InstantLipo Sep-1at 200 nm in THP-1 cells. Exposures were taken with consistent CCD exposure length with purple excitation cube; and (D) Lysotracker Red at 75 nM in THP-1 cells. Exposures were taken every 5 seconds (with consistent CCD exposure length) with green excitation cube. Unretouched, unprocessed images.
The dyes of the present invention hold up well to photobleaching relative to the time needed to take most fluorescence shots (a few seconds).

CCCCCCN1C(=O)c2cccc3c(NCCN)ccc(c23)C1=O [InstantLyso LLT-1, 6-(2-aminoethyl)amino-2-hexyl-1H-benz[de]isoquinoline-1,3-(2H)-dione]
resistance to photobleaching: holds up much better than the others
